Assay results published in patent publication US20060088899A1, “Combination chemotherapy with chlorotoxin” (priority 2002, published 2006).
pIC50: −log10 of the molar value. Read-outs that look alike come from different tables or passages of the source. Ends that are not written are not given here. * marks the point of attachment. Biotin = O=C1N[C@H]2[C@H](CS[C@H]2CCCCC(=O)*)N1

Assays:
D54-MG = assay: Chemotherapeutic agent cytotoxicity, CCK-8 assay; assay type: cell-based, Human; settings: two to five days treatment
Procedure: (§1) A tissue culture method was optimized to test the effects of various chemotherapeutic agents on multiple cancer cell lines (see Table 1). Cells were plated on 96-well microtiter tissue culture plates at a density of approximately 1000-2000 cells per well, depending on the specific cell line. Cells were allowed to adhere twenty-four hours in a 37° C., humidified cell culture incubator supplied with five percent carbon dioxide. In order to achieve a dose-response curve for each drug in each cell line, cells were treated with decreasing concentrations of a specific cytotoxic compound for two to five days. Following treatment, the cytotoxic effect of the drug was quantified using the Cell Counting Kit-8 (CCK-8) (Dojindo Inc.) according to the manufacturer's instructions. In brief, following the treatment period with the cytotoxic drug, cells were incubated with CCK-8 reagent and incubated at 37° C. for one to four hours, depending on the specific cell type. After incubation, plates were read on a microplate reader at a wavelength of 490 nm. The IC50 of each drug was calculated from a X-Y scatter plot of the negative log concentration of drug versus mean optical density (Table 2).

SKMEL28 = assay: Chemotherapeutic agent cytotoxicity, CCK-8 assay; assay type: cell-based, Human; settings: two to five days treatment
Procedure: as §1

SKMEL31 = assay: Chemotherapeutic agent cytotoxicity, CCK-8 assay; assay type: cell-based; settings: Homo sapiens, 120 h, two to five days treatment
Procedure: as §1

U251 = assay: Chemotherapeutic agent cytotoxicity, CCK-8 assay; assay type: cell-based; settings: Homo sapiens, U-251, 120 h, two to five days treatment
Procedure: as §1

[1] = tested on: PC3 human prostate cancer cells; assay type: binding
Text: In order to compare binding of the short scorpion toxins, the regions homologous to peptide 21 of small toxin and probable toxin LQH-8/6 were synthesized and biotinylated for analysis in the chlorotoxin binding assay (see Table 8 for amino acid sequences of the peptides).

PC-3 = assay: Chemotherapeutic agent cytotoxicity, CCK-8 assay; assay type: cell-based; settings: Homo sapiens, 120 h, two to five days treatment
Procedure: as §1

U251 and PC3 cells = settings: alanine-substituted 9-mers versus native 9-mer
crayfish = assay: Crayfish paralysis assay; assay type: in vivo; settings: 10-mer peptides
D54MG Glioblastoma cells = settings: for ^3H-Thymidine uptake ± SD (CPM): 24 hours incubation
Procedure: The purpose of this experiment was to determine if the proliferation D54MG Glioblastoma cells, as measured by ^3H-thymidine uptake, is effected by Peptide 21, a segment of the full chlorotoxin sequence. The sequence of peptide 21 and its relation to chlorotoxin is shown in the sequence below:
D54MG cells were plated in a 24 well plate at 100,000 cells/ml/well using five rows of four wells for each concentration. The cells were allowed to adhere in normal media for twenty-four hours at 37° C. and 5% carbon dioxide. TM-701 was diluted to a […] stock solution and added to each row at the concentrations of 0, 20, 80, 160 and 320 nM.
The cells and peptide 21 were allowed to incubate for 24 hours at 37° C. and 5% carbon dioxide. After twenty-four hours, the cells were rinsed two times with warm PBS. Normal media was added back to the cells at 1 ml/well. One μCi of ^3H-thymidine was added to each well (1 μl of 1 mCi/ml ^3H-thymidine to each well). The plate was incubated for two hours at 37° C. The media and thymidine were removed and the wells were rinsed with ice-cold phosphate-buffered saline three times. To each well was added 1 ml of 0.3 N NaOH. The plate was incubated in the 37° C. incubator for thirty minutes. Each well of 0.3 N NaOH was pipetted up and down three to four times and removed from the plate and the solution was placed in scintillation vials for counting. Scintillation fluid at four times the amount of sample was added to the vials (4 ml). Each vial was counted on the scintillation counter for one minute.

U251 glioma flank tumors = assay: Temodar plus chlorotoxin in glioma flank tumor model; assay type: in vivo, Nude mice; settings: i.p., temodar 13.2 mg/kg, chlorotoxin 0.080 mg/kg
Procedure: The purpose of this study was to determine whether hydroxyurea or temodar combined with chlorotoxin were sufficient to inhibit tumor growth as indicated from in vitro studies with glioma cell lines. […] Combination treatment with chlorotoxin with hydroxyurea or temodar in mice with glioma flank tumors was compared to the treatment group of hydroxyurea or temodar alone and saline alone. Hydroxyurea and temodar dosage was based on the lowest dosage (10 mg/kg body weight) used in previous studies to determine clearance from the body in the treatment of sickle cell disease paradigm in nude mice (Iyamu et al. (2001) Chemotherapy 47, 270-278). […]
Mice with established flank tumors were each treated with 0.100 ml injection (i.p) of sterilized solutions consisting of either of saline, saline and hydroxyurea or temodar (13.2 mg/kg body weight), or saline, hydroxyurea or temodar (13.2 mg/kg) and chlorotoxin (0.080 mg/kg body weight). Tumor volume was calculated based on the measurements with the same set of calipers on the indicated days by determining the length×width×height of the tumor of non-anesthetized mice. […] Statistical significance was determined according to a one-way ANOVA test.

[2] = Homo sapiens, D54MG, 120 h, read-out: IC50
[3] = Homo sapiens, SK-MEL-28, 120 h, read-out: IC50
[4] = PC3 cells, biotinylated peptides

With `N.N.[Cl][Pt][Cl]` [Cisplatin, cis-diamminedichloroplatinum] the IC50 (D54-MG) was 10 µg/mL and the IC50 (SKMEL28) was 8 µg/mL.

Compound `COc1cccc2c1C(=O)c1c(O)c3c(c(O)c1C2=O)C[C@@](O)(C(=O)CO)C[C@@H]3O[C@H]1C[C@H](N)[C@H](O)[C@H](C)O1` [Doxorubicin, hydroxyl daunorubicin] has an IC50 (SKMEL31) of 0.035 µg/mL, an IC50 (U251) of 0.03 µg/mL and an IC50 (D54-MG; [2]) of 0.06 µg/mL. The IC50 (SKMEL28; [3]) was 0.04 µg/mL.

With “TTDQQMTKK [Peptide 21LQ, biotinylated region of probable toxin LQH-8/6 homologous to peptide 21]” the binding [1, 4] was 242.32 % of background levels.

`NC(=O)NO` [Hydroxyurea, hyroxycarbamide] gave a pIC50 (PC-3) of 1.46.

For “negative peptide (GKCYGPQCLC; Chlorotoxin; listed as Leiurus quinquestriatus)”, the binding [1, 4] was 110 % of background levels.

Biotin-TDHAMARKS [Peptide 21a-A4] was tested, and the “binding of the peptide to cells” value (U251 and PC3 cells) was “may be equal to or greater than chlorotoxin itself”.

“TTDPQMSKK [Peptide 21ST, biotinylated region of small toxin homologous to peptide 21]” was tested, and the binding [1, 4] was 225.26 % of background levels.

Compound `O=c1[nH]cc(F)c(=O)[nH]1` [5-Fluorouracil, fluorouracil] has an IC50 (D54-MG; [2]) of 1.5 µg/mL.

`CC(=O)O[C@H]1C(=O)[C@@]2(C)[C@H]([C@H](OC(=O)c3ccccc3)[C@]3(O)C[C@H](OC(=O)[C@H](O)[C@@H](NC(=O)c4ccccc4)c4ccccc4)C(C)=C1C3(C)C)[C@]1(OC(C)=O)CO[C@@H]1C[C@@H]2O` [Paclitaxel, paclitaxel] gave a pIC50 (SKMEL31) of 7.60, a pIC50 (U251) of 8.10 and a pIC50 (D54-MG; [2]) of 7.98.

Biotin-TTDHQMARKS [peptide 21] was tested, and the paralysis of crayfish (crayfish) was “effective”, the binding [1] was 232.50 % of background levels and the “uptake of ^3H-thymidine, dose dependence” value (D54MG Glioblastoma cells; 0 to 320 nM) was “decreases in a does-dependent manner”. For the same compound, the “^3H-Thymidine uptake ± SD (CPM)” value (D54MG Glioblastoma cells; 20 nM) was 7795 ± 634 CPM, the “^3H-Thymidine uptake ± SD (CPM)” value (D54MG Glioblastoma cells; 80 nM) was 7412 ± 630 CPM and the “^3H-Thymidine uptake ± SD (CPM)” value (D54MG Glioblastoma cells; 160 nM) was 6983 ± 329 CPM. For the same compound, the “^3H-Thymidine uptake ± SD (CPM)” value (D54MG Glioblastoma cells; 320 nM) was 5782 ± 886 CPM.

With `Cn1nnc2c(C(N)=O)ncn2c1=O` [Temodar, temozomide] the pIC50 (SKMEL31) was 3.82, the pIC50 (U251) was 3.82 and the pIC50 (D54-MG; [2]) was 3.92. For the same compound, the pIC50 (SKMEL28; [3]) was 4.52 and the “growth of the xenografted tumor (percent change of tumor volume)” value (U251 glioma flank tumors) was “little effect”.
